Reference: patent publication US20040059104A1, “Nucleotide mimics and their prodrugs” (priority 2002, published 2004)

Tests used:
in vitro [1] = settings: bovine, serum
Description: Typically the total volume used for the experiment was 500 μl. The final concentrations of the reaction components were as follows:
The reacton mixtures were made up and incubated at 37° C. At appropriate times aliquots of 25 μl were removed and added to 65 μl ice-cold methanol. These solutions were our at −20° C. and typically overnight. After incubation samples were inutes at high speed in a microcentrifuge. The supernatant was nd the extract was dried under vacuum in a LabConco Centrivap Concentrator. The dried extracts were resuspended in dH2O and filtered to remove particulate before analysis on reverse phase HPLC.
The reverse phase HPLC columns used for the analysis were either a Phenomenex C18 Aqua column (2×100 mm) or the Phenomenex C18 Aqua column (3×150 mm) used with the appropriate guard column. The HPLC was run at 0.2 ml/min (for the 2×100 mm column) or at 0.5 ml/min (for the 3×150 mm column) with the following buffer system: 5 mM tetrabutylammonium acetate, 50 mM ammonium phosphate, and an acetonitrile gradient running from 5% up to as high as 60%. The amount of remaining parent compound at each time point was used to determine the half-life of the compound. […] Unmodified nucleoside triphosphates were used as positive controls.

[2] = biological target: T1, HIV Reverse Transcriptase (Type B, 66 kDa subunit) (Human immunodeficiency virus type 1 group M subtype B, UniProt P04585); assay: HIV Reverse Transcriptase inhibition assays (RNA-directed DNA polymerization, PicoGreen fluorescence); format: biochemical; settings: Table 1; template (homopolymer or heteropolymer RNA) not stated; read-out: Ki, Inhibition of HIV Reverse Transcriptase by Nucleotide Mimics
T1 construct: purified HIV Reverse Transcriptase (Type B, 66 kDa subunit)
Description: The assays employed to measure inhibition of HIV Reverse Transcriptase (HIV RT) catalyzed/RNA-directed DNA polymerization are described below. The effectiveness of the compounds of the present invention as inhibitors of HIV RT-catalyzed DNA polymerization was measured in the following assays.
This assay was used to measure the ability of the nucleotide mimics of the present invention to inhibit the enzymatic synthesis of complementary strand DNA from a DNA-primed template of homopolymeric RNA. This assay is a modification of a published procedure (Seville, et al., “Fluorometric Assay for DNA Polymerases and Reverse Transcriptase”, BioTechniques 1996, 21, 664-72).
The compounds were tested at various concentrations up to 500 μM final concentration. DNA polymerase activity was measured in a reaction buffer containing primed-RNA template and dTTP diluted to appropriate concentrations in assay buffer. Nucleotide mimics of the present invention were diluted in buffer and pipetted into the wells of a 96-well plate. The reaction was initiated by addition of enzyme and allowed to proceed at 37° C. for 10 minutes. The reaction was quenched by addition of 5 μL 0.2 M EDTA, pH 8.0.
200 μL of diluted PicoGreen dsDNA Quantitation Reagent (Molecular Probes, Inc, Eugene, Oreg.) was added to each well of a 96-well plate and incubated at room temperature for 5 minutes. Plate wells were read on a microplate fluorometer (Molecular Devices Corp., Sunnyvale, Calif.). The wells were excited at 480 nm and the fluorescence emission intensity (RFU) was measured at 520 nm. The percentage of inhibition was calculated according to the following equation:
% Inhibition=[1−(RFU in test reaction−RFU in blank)/(RFU in control reaction−RFU in blank)]×100.
Each inhibitor was titrated over an appropriate range of concentrations, and inhibition constants were determined using the following equations:
v=Vm[S]/(Km(1+[I]/Ki)+[S])
Certain compounds of the present invention were also tested to determine their ability to inhibit HIV RT-catalyzed DNA polymerization on a heteropolymeric primed-RNA template in the presence of all four natural deoxynucleotide triphosphate (dNTP) substrates. This assay is a modification of a published procedure (Parker et al., “Mechanism of Inhibition of Human Immunodeficiency Virus Type 1 Reverse Transcriptase and Human DNA Polymerases α, β, and γ by the 5′-Triphosphates of Carbovir,3′-Azido-3′-deoxythymidine,2′-3′-Dideoxyguanosine, and 3′-Deoxythymidine”, J. Biol. Chem. 1991, 266 (3), 1754-62).
HIV RT DNA polymerase activity was measured in a reaction buffer containing primed-ribosomal RNA template and dNTPs diluted to appropriate concentrations in assay buffer and pipetted into 1.5 mL microcentrifuge tubes. Nucleotide mimics of the present invention were diluted in buffer and tested at various concentrations up to 5 μM final concentration. The reaction was initiated by addition of enzyme and allowed to proceed at 42° C. for 60 to 90 minutes. The reaction was quenched by addition of 12 μL 0.2 M EDTA, pH 8.0.
50 μL each of reaction was transferred to the well of a 96-well plate (in duplicate). 200 μL of diluted PicoGreen dsDNA Quantitation Reagent was added to each well of a 96-well plate and incubated at room temperature for 5 minutes. Plate wells were read on a microplate fluorometer. The wells were excited at 480 nm and the fluorescence emission intensity (RFU) was measured at 520 nm. The percentage of inhibition and inhibition constants […] were determined for representative compounds as described above.

HIV-1RF = assay: Anti-HIV-1 cytoprotection assay in CEM-SS cells; format: cell-based; settings: CEM-SS cells infected with HIV-1RF, MOI approximately 0.01, 6 days, MTS; read-out: CEM-SS IC50 (Anti-HIV Screening)
Description: (§1) ollowing paper: Structure-Activity and Cross-Resistance unodeficiency Virus Type 1-Specific ckheit, Jr. et al., Antimicrobial Agents and s were evaluated in CEM-SS cell cultures V-1RF at an MOI of approximately 0.01. At he soluble tetrazolium-based dye MTS viability and quantify compound toxicity of metabolically active cells to yield a soluble analysis of cell viability and compound
Efficacy Evaluation in CEM-SS Cells Anti-HIV-1 Cytoprotection Assay
Cell Preparation—CEM-SS cells were passaged in T-75 flasks prior to use in the antiviral assay. On the day preceding the assay, the cells were split 1:2 to assure they were in an exponential growth phase at the time of infection. Total cell and viability quantification was performed using a hemacytometer and trypan blue exclusion. Cell viability was greater than 95% for the cells to be utilized in the assay. The cells were resuspended at 5×10^4 cells/ml in tissue culture medium and added to the drug-containing microtiter plates in a volume of 50 μl.
Virus Preparation—The virus used for these tests was the lymphocytropic virus strain HIV-1RF. This virus was obtained from the NIH AIDS Research and Reference Reagent Program and was grown in CEM-SS cells for the production of stock virus pools. For each assay, a pre-titered aliquot of virus was removed from the freezer (−80° C.) and allowed to thaw slowly to room temperature in a biological safety cabinet. The virus was resuspended and diluted into tissue culture medium such that the amount of virus added to each well in a volume of 50 μl was the amount determined to give between 85 to 95% cell killing at 6 days post-infection.
(§2) At assay termination, the assay plates were stained with the soluble tetrazolium-based dye MTS (CellTiter Reagent Promega) to determine cell viability and quantify compound toxicity. MTS is metabolized by the mitochondrial enzymes of metabolically active cells to yield a soluble formazan product, allowing the rapid quantitative analysis of cell viability and compound cytotoxicity. […] At termination of the assay, 20 μL of MTS reagent was added per well. The microtiter plates were then incubated 4-6 hrs at 37° C. for the HIV cytoprotection assay; the incubation intervals were chosen based on empirically determined times for optimal dye reduction. Adhesive plate sealers were used in place of the lids, the sealed plate was inverted several times to mix the soluble formazan product and the plate was read spectrophotometrically at 490 nm with a Molecular Devices Vmax plate reader.

CEM-SS cells = assay: Compound toxicity in CEM-SS cells (MTS staining); format: cell-based; settings: read-out: CEM-SS TC50
Description: as §1, §2

Escherichia coli = assay: Antimicrobial assay, minimal inhibitory concentration; format: cell-based
Description: To examine the antimicrobial potential of the nucleotide mimics of the present invention an assay was employed that allowed the screening of a large number of compounds simultaneously. The type of bacteria chosen to screen the compounds are organisms associated with human disease and represent major groups of bacteria based on their structure and metabolism. Bacterial cultures of Escherichia coli and Staphylococcus aureus were incubated overnight at 37° C. in a shaker incubator. A lawn of each overnight bacterial culture was made by plating […] of bacteria on agar plates containing Nutrient Broth. Immediately after plating, sterile blank paper discs were put on top of the lawn and a compound was applied to each blank paper disc. Plates were then incubated overnight and examined for the inhibition of bacterial growth the following day. […] The plates were incubated overnight at 37° C. and then examined spectrophotometrically at 600 nm to determine the minimum concentration of each compound that inhibited replication of bacteria as determined by no increase in absorbance at 600 nm.

CEM cells = assay: Cell uptake procedure (intracellular nucleotide levels by HPLC); format: cell-based, Human; settings: 24 hour incubation, limit of detection about 5 pmol/10^6 cells
Description: CEM cells were resuspended in RPMI at 1×10^7 cells/mL. The appropriate amount of each compound was added to well and then 0.5 ml of the cells was aliquoted into the appropriate number of wells of a 24-well plate and incubated the cells at 37° C. Cells were harvested after 24 hours of incubation. To harvest cells they were transferred to a microfuge tube and spun for one minute at high speed. The samples were washed in PBS containing 1 mg/ml BSA and re-centrifuged. The PBS was then aspirated and 200 μL of ice-cold 60% methanol was added to extract the nucleotides. The extracts were incubated overnight at −20° C. The next day the samples were spun at high speed in a microfuge for 20 minutes and the supernatant transferred to clean tubes and dried in the speed vac. After drying the samples were resuspended in 50 μl, filtered, and the samples then directly injected onto the HPLC. The nucleotides were analyzed using reverse phase HPLC with ion-pairing agents for separation of the nucleotides. The procedure was adapted from the following paper: Furman, et al., Proc. Natl. Acad. Sci. USA 1986, 83, 8333-8337.
The limit of detection was estimated to be 5 pmol/10^6 cells.

in vitro [3] = settings: human
Description: The stability of compounds in cell extracts was examined as follows:
Cell lysis buffer was added to cell pellets and the cells frozen and thawed 3× using dry ice. The lysis buffer (LB) was composed of the following: 50 mM Tris-HCl, pH 7.4 (100 μl/ml 10× stock), 20% glycerol (200 μl/ml), and 0.5% Triton X-100 (5 μl/ml). 100 μl of LB was added to each microfuge tube containing 10^7 frozen CEM cells. After the cells were lysed the extracts were centrifuged at high speed in a microcentrifuge for 5 minutes and the clarified cell extract transferred to a new tube. The cell stability reaction mixtures contained concentrations of buffer, magnesium, nucleotide, and cell extract as shown below:
The reaction mixtures were incubated at 37° C. At each time point, including at time zero, 12.5 μl aliquots were added to 40 μl ice-cold methanol. […] The samples were incubated in methanol for at least 60 minutes and typically overnight at −20° C. prior to further processing. The cell extracts were centrifuged at high speed in refrigerated microcentrifuge for 20 minutes and the supernatant transferred to a new tube. The extract was then dried under vacuum in a LabConco Centrivap Concentrator. The samples were then resuspended in 40 or 50 μl dH2O, filtered to remove any particulate, and analyzed by reverse phase HPLC.
The reverse phase HPLC columns used for the analysis were either a Phenomenex C18 Aqua column (2×100 mm) or the Phenomenex C18 Aqua column (3×150 mm) used with the appropriate guard column. The HPLC flow rate was either 0.2 ml/min (for the 2×100 mm column) or 0.5 ml/min (for the 3×150 mm column) with the following buffer system: 5 mM tetrabutylammonium acetate, 50 mM ammonium phosphate, and an acetonitrile gradient running from 5% up to as high as 60%. The amount of remaining parent compound at each time point was used to determine the half-life of the compound. […] Unmodified nucleoside triphosphates were used as positive controls.

[4] = overnight at 37° C., tested 0-200 μg/ml, NA = Not active
[5] = value in brackets beside the μg/ml value
[6] = incubation concentration 100 μM

For `BP(=O)(OC[C@H]1O[C@@H](n2cc(C)c(=O)[nH]c2=O)C[C@H]1N=[N+]=[N-])OP(=O)(O)C(F)(F)P(=O)(O)Oc1ccccc1` (stereo partly drawn) [Compound 42, 3′-Azido-3′-deoxythymidine 5′-α-P-borano-β,γ-difluoromethylene-γ-O-phenyltriphosphate], the “Half-Life, Serum Half-Lives of AZT Triphosphate Mimic Prodrugs” value (“Half-Life, Serum Half-Lives” below) (in vitro [1]) was over 48 h, the Ki [2] was 0.113 µM and the IC50 (HIV-1RF) was 2.54 µM. For the same molecule, the CC50 (CEM-SS cells) was 32.1 µM.
With “3′-Azido-3′-deoxythymidine 5′-α-P-borano-γ-O-(S-pivaloyl-2-thioethyl)-β,γ-(difluoromethylene)triphosphate [Compound 70]” the “E. coli MIC” value (Escherichia coli; [4]) was 6 µg/mL, the “E. coli MIC” value (Escherichia coli; [5]) was “(8.8) uM” and the “Intracellular levels of 27” value (CEM cells; incubation concentration 25 μM) was 10.5 pmol/10^6 cells. For the same molecule, the “Intracellular levels of 27” value (CEM cells; incubation concentration 50 μM) was 15.6 pmol/10^6 cells, the “Intracellular levels of 27” value (CEM cells; [6]) was 19.7 pmol/10^6 cells and the “Half-Life, Cell Extract Half-Lives of AZT 5'-α-P-borano-β,γ-(difluoromethylene) triphosphate Prodrugs” value (in vitro [3]) was 15 h. For the same molecule, the “Half-Life, Serum Half-Lives” value (in vitro [1]) was over 48 h, the IC50 (HIV-1RF) was 0.95 µM and the CC50 (CEM-SS cells) was over 200 µM.
In the case of `BP(=O)(OC[C@H]1O[C@@H](n2cc(C)c(=O)[nH]c2=O)C[C@H]1N=[N+]=[N-])OP(=O)(O)C(F)(F)P(=O)(O)OCOC(=O)C(C)(C)C` (stereo partly drawn) [Compound 69, 3′-Azido-3′-deoxythymidine 5′-α-P-borano-γ-O-(pivaloyloxymethyl)-β,γ-(difluoromethylene)triphosphate], the “E. coli MIC” value (Escherichia coli; [4]) is reported as 0.75 µg/mL, the “E. coli MIC” value (Escherichia coli; [5]) is reported as “(1) uM” and the “Intracellular levels of 27” value (CEM cells; incubation concentration 25 μM) is reported as 33.1 pmol/10^6 cells. For the same molecule, the “Intracellular levels of 27” value (CEM cells; incubation concentration 50 μM) was 51.1 pmol/10^6 cells, the “Intracellular levels of 27” value (CEM cells; [6]) was 70.8 pmol/10^6 cells and the “Half-Life, Cell Extract Half-Lives of AZT 5'-α-P-borano-β,γ-(difluoromethylene) triphosphate Prodrugs” value (in vitro [3]) was 8 h. For the same molecule, the “Half-Life, Serum Half-Lives” value (in vitro [1]) was over 48 h, the IC50 (HIV-1RF) was 1.13 µM and the CC50 (CEM-SS cells) was 45.9 µM.
